The values below come from patent US20070010507A1, “Compounds useful in the therapy of alzheimer's disease and formulations containing them” (priority 2003, published 2007).

One assay concerns α-secretase-mediated APP metabolism (SH-SY5Y neuroblastoma cells). In words: α-secretase-induced APPs release in culture medium of neuroblastoma cell line SH-SY5Y. Format: cell-based. Particulars: 10 μM; APPs secreted in culture medium of SH-SY5Y cells; control = 100. Here is the method: The salts according to the present invention are stable crystalline products having strong antidepressive and anti-Alzheimer actions. The effect of the compounds of the invention on α-secretase-induced APPs release was determined in the culture medium of a neuroblastoma cell line (SH-SY5Y) according to what reported by Galbete J. L. et al. in Biochem. 348,307-313, 2000.
Compound `CC(C)CCCC1(C)C(CCC(C)C)CC2(CCC(C)C)C(=O)C1(C(=O)C(C)C)C(=O)C(CCC(C)C)=C2O.COc1ccc2c3c1OC1CC(O)C=CC31CCN(C)C2` (stereo not drawn) [Galantamonium octahydrohyperforinate, Galantamine octahydrohyperforinate] displayed an APPs % of 3652%.
Same read-out and setting: under `CC(C)=CCC[C@]1(C)[C@@H](CC=C(C)C)C[C@@]2(CC=C(C)C)C(=O)[C@]1(C(=O)C(C)C)C(=O)C(CC=C(C)C)=C2O` [Hyperforin] stands 296%; under `CC(C)CCC[C@]1(C)[C@@H](CCC(C)C)C[C@@]2(CCC(C)C)C(=O)[C@]1(C(=O)C(C)C)C(=O)C(CCC(C)C)=C2O` [Octahydrohyperforin], 1383%; under “Memantine octahydrohyperforinate [Mentamine octahydrohyperforinate]”, 3221%.

Still in this assay, the particulars now being: concentration not given; APPs secreted in culture medium of SH-SY5Y cells; control = 100.
In turn, `COc1ccc2c3c1O[C@H]1C[C@@H](O)C=C[C@@]31CCN(C)C2` [Galantamine] displayed an APPs % of 302%.
Same read-out and setting: the same measure for `CC(C)=CCC[C@]1(C)[C@@H](CC=C(C)C)C[C@@]2(CC=C(C)C)C(=O)[C@]1(C(=O)C(C)C)C(=O)C(CC=C(C)C)=C2O.COc1ccc2c3c1O[C@H]1C[C@@H](O)C=C[C@@]31CCN(C)C2` [Galantamonium hyperforinate]: 773%.
